# Tests used:
# [1] = test system: Staphylococcus aureus; assay: MIC determination of compounds on ECO/PAE/STA in microplates; assay type: cell-based; settings: lowest concentration with no growth (90% inhibition of growth), 18-20 hours at 37° C., visual, strain not given
structure (smiles),measurement,setting,value
N#Cc1ccc(-c2ncc(-c3cccc(C#N)c3)c(C3CCN(CC(F)(F)F)CC3)n2)cc1 [Compound 84],MIC90,[1],0.125 µg/mL
same,melting point,,249 to 251 °C
N#Cc1cccc(-c2cnc(-c3ccc(F)cc3)nc2C2CCN(CC(F)(F)F)CC2)c1 [Compound 76],MIC90,[1],0.125 µg/mL
same,melting point,,157 to 158 °C
CC(C)(C#N)CN1CCC(c2nc(-c3ccncc3)ncc2-c2cccc(C#N)c2)CC1 [Compound 75],MIC90,[1],0.5 µg/mL
same,melting point,,79 to 87 °C
CC(C)(C#N)CN1CCC(c2nc(-c3ccc(F)cc3)ncc2-c2cccc(C#N)c2)CC1 [Compound 80],MIC90,[1],0.125 µg/mL
same,melting point,,171 °C
COc1cccc(-c2cnc(-c3ccc(C#N)cc3)nc2C2CCN(CC(F)(F)F)CC2)c1 [Compound 83],MIC90,[1],0.125 µg/mL
same,melting point,,180 to 182 °C
